Values quoted from earlier work in PMC8513935.
One block for each compound: values may come before it.

Tests used:
[1] = log P octanol/water from commercial databases, averaged (the ESI); details: Octanol (wet), 25 C
[2] = experimental, compiled by the authors from the literature (the ESI cites the sources)
[3] = derived by the authors as gas->solvent minus gas->water (a hypothetical dry solvent; the ESI), not a two-phase measurement

SMILES: C=CCC
- log K of transfer, water to solvent [1]: 2.4 log10 K
- log K of transfer, gas to solvent ([2]; 2-Methylpropan-1-ol, 25 C): 1.45 log10 K
- log K of transfer, gas to solvent ([2]; 2-Methylpropan-2-ol, 25 C): 1.49 log10 K
- log K of transfer, gas to solvent ([2]; 3-Methylbutan-1-ol, 25 C): 1.46 log10 K
- log K of transfer, gas to solvent ([2]; Butan-1-ol, 25 C): 1.47 log10 K
- log K of transfer, gas to solvent ([2]; Butan-2-ol, 25 C): 1.46 log10 K
- log K of transfer, gas to solvent ([2]; CCl4, 25 C): 1.83 log10 K
- log K of transfer, gas to solvent ([2]; Hexadecane, 25 C): 1.53 log10 K
- log K of transfer, gas to solvent ([2]; Hexane, 25 C): 1.83 log10 K
- log K of transfer, gas to solvent ([2]; Pentan-1-ol, 25 C): 1.47 log10 K
- log K of transfer, gas to solvent ([2]; Propan-1-ol, 25 C): 1.47 log10 K
- log K of transfer, gas to solvent ([2]; Propan-2-ol, 25 C): 1.45 log10 K
- log K of transfer, gas to solvent ([2]; Water, 25 C): -1.01 log10 K
- log K of transfer, water to solvent ([3]; 2-Methylpropan-1-ol, 25 C): 2.46 log10 K
- log K of transfer, water to solvent ([3]; 2-Methylpropan-2-ol, 25 C): 2.5 log10 K
- log K of transfer, water to solvent ([3]; 3-Methylbutan-1-ol, 25 C): 2.47 log10 K
- log K of transfer, water to solvent ([3]; Butan-1-ol, 25 C): 2.48 log10 K
- log K of transfer, water to solvent ([3]; Butan-2-ol, 25 C): 2.47 log10 K
- log K of transfer, water to solvent ([3]; CCl4, 25 C): 2.84 log10 K
- log K of transfer, water to solvent ([3]; Hexadecane, 25 C): 2.54 log10 K
- log K of transfer, water to solvent ([3]; Hexane, 25 C): 2.83 log10 K
- log K of transfer, water to solvent ([3]; Pentan-1-ol, 25 C): 2.48 log10 K
- log K of transfer, water to solvent ([3]; Propan-1-ol, 25 C): 2.48 log10 K
- log K of transfer, water to solvent ([3]; Propan-2-ol, 25 C): 2.46 log10 K

SMILES: C=CCCCCC
- log K of transfer, water to solvent [1]: 3.99 log10 K
- log K of transfer, gas to solvent ([2]; Butyronitrile, 25 C): 2.87 log10 K
- log K of transfer, gas to solvent ([2]; Hexadecane, 25 C): 3.06 log10 K
- log K of transfer, gas to solvent ([2]; Pentan-1-ol, 25 C): 2.88 log10 K
- log K of transfer, gas to solvent ([2]; Propionitrile, 25 C): 2.78 log10 K
- log K of transfer, gas to solvent ([2]; Water, 25 C): -1.22 log10 K
- log K of transfer, water to solvent ([3]; Butyronitrile, 25 C): 4.09 log10 K
- log K of transfer, water to solvent ([3]; Hexadecane, 25 C): 4.28 log10 K
- log K of transfer, water to solvent ([3]; Pentan-1-ol, 25 C): 4.1 log10 K
- log K of transfer, water to solvent ([3]; Propionitrile, 25 C): 4 log10 K

SMILES: Cc1ccccn1
- log K of transfer, water to solvent [1]: 1.12 log10 K
- log K of transfer, gas to solvent ([2]; 2-Methylpropan-1-ol, 25 C): 4.54 log10 K
- log K of transfer, gas to solvent ([2]; 2-Methylpropan-2-ol, 25 C): 4.33 log10 K
- log K of transfer, gas to solvent ([2]; Benzene, 25 C): 4.3 log10 K
- log K of transfer, gas to solvent ([2]; Butan-2-ol, 25 C): 4.4 log10 K
- log K of transfer, gas to solvent ([2]; Chloroform, 25 C): 5.12 log10 K
- log K of transfer, gas to solvent ([2]; Cyclohexane, 25 C): 3.7 log10 K
- log K of transfer, gas to solvent ([2]; Hexadecane, 25 C): 3.42 log10 K
- log K of transfer, gas to solvent ([2]; Propan-2-ol, 25 C): 4.31 log10 K
- log K of transfer, gas to solvent ([2]; Water, 25 C): 3.4 log10 K
- log K of transfer, water to solvent ([3]; 2-Methylpropan-1-ol, 25 C): 1.14 log10 K
- log K of transfer, water to solvent ([3]; 2-Methylpropan-2-ol, 25 C): 0.93 log10 K
- log K of transfer, water to solvent ([3]; Benzene, 25 C): 0.9 log10 K
- log K of transfer, water to solvent ([3]; Butan-2-ol, 25 C): 0.999 log10 K
- log K of transfer, water to solvent ([3]; Chloroform, 25 C): 1.72 log10 K
- log K of transfer, water to solvent ([3]; Cyclohexane, 25 C): 0.3 log10 K
- log K of transfer, water to solvent ([3]; Hexadecane, 25 C): 0.022 log10 K
- log K of transfer, water to solvent ([3]; Propan-2-ol, 25 C): 0.91 log10 K

Second part, the compound after the results:

- log K of transfer, water to solvent [1]: 4.8 log10 K
- log K of transfer, gas to solvent ([2]; 1,2-Dichloroethane, 25 C): 3.19 log10 K
- log K of transfer, gas to solvent ([2]; Acetonitrile, 25 C): 2.51 log10 K
- log K of transfer, gas to solvent ([2]; Butan-1-ol, 25 C): 3.1 log10 K
- log K of transfer, gas to solvent ([2]; Butanone, 25 C): 3.22 log10 K
- log K of transfer, gas to solvent ([2]; Butyronitrile, 25 C): 3.01 log10 K
- log K of transfer, gas to solvent ([2]; CCl4, 25 C): 3.72 log10 K
- log K of transfer, gas to solvent ([2]; Chlorobenzene, 25 C): 3.69 log10 K
- log K of transfer, gas to solvent ([2]; Chloroform, 25 C): 3.63 log10 K
- log K of transfer, gas to solvent ([2]; Cyclohexanone, 25 C): 3.15 log10 K
- log K of transfer, gas to solvent ([2]; Dichloromethane, 25 C): 3.47 log10 K
- log K of transfer, gas to solvent ([2]; Ethanol, 25 C): 2.94 log10 K
- log K of transfer, gas to solvent ([2]; Hexadecane, 25 C): 3.48 log10 K
- log K of transfer, gas to solvent ([2]; Hexane, 25 C): 3.68 log10 K
- log K of transfer, gas to solvent ([2]; Methanol, 25 C): 2.66 log10 K
- log K of transfer, gas to solvent ([2]; Perfluoroalkane, 25 C): 2.45 log10 K
- log K of transfer, gas to solvent ([2]; Propan-1-ol, 25 C): 2.95 log10 K
- log K of transfer, gas to solvent ([2]; Propan-2-ol, 25 C): 2.95 log10 K
- log K of transfer, gas to solvent ([2]; Propanone, 25 C): 3.03 log10 K
- log K of transfer, gas to solvent ([2]; Propionitrile, 25 C): 2.83 log10 K
- log K of transfer, gas to solvent ([2]; Tetrahydrofuran, 25 C): 3.59 log10 K
- log K of transfer, gas to solvent ([2]; Water, 25 C): -1.88 log10 K
- log K of transfer, water to solvent ([3]; 1,2-Dichloroethane, 25 C): 5.07 log10 K
- log K of transfer, water to solvent ([3]; Acetone, 25 C): 4.91 log10 K
- log K of transfer, water to solvent ([3]; Acetonitrile, 25 C): 4.39 log10 K
- log K of transfer, water to solvent ([3]; Butan-1-ol, 25 C): 4.98 log10 K
- log K of transfer, water to solvent ([3]; Butanone, 25 C): 5.1 log10 K
- log K of transfer, water to solvent ([3]; Butyronitrile, 25 C): 4.89 log10 K
- log K of transfer, water to solvent ([3]; CCl4, 25 C): 5.6 log10 K
- log K of transfer, water to solvent ([3]; Chlorobenzene, 25 C): 5.57 log10 K
- log K of transfer, water to solvent ([3]; Chloroform, 25 C): 5.51 log10 K
- log K of transfer, water to solvent ([3]; Cyclohexanone, 25 C): 5.03 log10 K
- log K of transfer, water to solvent ([3]; Dichloromethane, 25 C): 5.35 log10 K
- log K of transfer, water to solvent ([3]; Ethanol, 25 C): 4.82 log10 K
- log K of transfer, water to solvent ([3]; Hexadecane, 25 C): 5.36 log10 K
- log K of transfer, water to solvent ([3]; Hexane, 25 C): 5.56 log10 K
- log K of transfer, water to solvent ([3]; Methanol, 25 C): 4.54 log10 K
- log K of transfer, water to solvent ([3]; Perfluoroalkane, 25 C): 4.33 log10 K
- log K of transfer, water to solvent ([3]; Propan-1-ol, 25 C): 4.83 log10 K
- log K of transfer, water to solvent ([3]; Propan-2-ol, 25 C): 4.83 log10 K
- log K of transfer, water to solvent ([3]; Propionitrile, 25 C): 4.71 log10 K
- log K of transfer, water to solvent ([3]; Tetrahydrofuran, 25 C): 5.47 log10 K
SMILES: CC(C)C(C)C(C)C

- log K of transfer, water to solvent [1]: 4.56 log10 K
- log K of transfer, gas to solvent ([2]; 1,2-Dichloroethane, 25 C): 3.57 log10 K
- log K of transfer, gas to solvent ([2]; Acetonitrile, 25 C): 2.87 log10 K
- log K of transfer, gas to solvent ([2]; Butan-1-ol, 25 C): 3.44 log10 K
- log K of transfer, gas to solvent ([2]; Butanone, 25 C): 3.53 log10 K
- log K of transfer, gas to solvent ([2]; Butyronitrile, 25 C): 3.35 log10 K
- log K of transfer, gas to solvent ([2]; CCl4, 25 C): 4.08 log10 K
- log K of transfer, gas to solvent ([2]; Chlorobenzene, 25 C): 4.06 log10 K
- log K of transfer, gas to solvent ([2]; Chloroform, 25 C): 3.99 log10 K
- log K of transfer, gas to solvent ([2]; Cyclohexanone, 25 C): 3.55 log10 K
- log K of transfer, gas to solvent ([2]; Dichloromethane, 25 C): 3.82 log10 K
- log K of transfer, gas to solvent ([2]; Ethanol, 25 C): 3.27 log10 K
- log K of transfer, gas to solvent ([2]; Hexadecane, 25 C): 3.88 log10 K
- log K of transfer, gas to solvent ([2]; Hexane, 25 C): 3.97 log10 K
- log K of transfer, gas to solvent ([2]; Methanol, 25 C): 2.96 log10 K
- log K of transfer, gas to solvent ([2]; Perfluoroalkane, 25 C): 2.56 log10 K
- log K of transfer, gas to solvent ([2]; Propan-1-ol, 25 C): 3.28 log10 K
- log K of transfer, gas to solvent ([2]; Propan-2-ol, 25 C): 3.27 log10 K
- log K of transfer, gas to solvent ([2]; Propanone, 25 C): 3.32 log10 K
- log K of transfer, gas to solvent ([2]; Propionitrile, 25 C): 3.17 log10 K
- log K of transfer, gas to solvent ([2]; Tetrahydrofuran, 25 C): 3.92 log10 K
- log K of transfer, gas to solvent ([2]; Water, 25 C): -1.58 log10 K
- log K of transfer, water to solvent ([3]; 1,2-Dichloroethane, 25 C): 5.15 log10 K
- log K of transfer, water to solvent ([3]; Acetone, 25 C): 4.9 log10 K
- log K of transfer, water to solvent ([3]; Acetonitrile, 25 C): 4.45 log10 K
- log K of transfer, water to solvent ([3]; Butan-1-ol, 25 C): 5.02 log10 K
- log K of transfer, water to solvent ([3]; Butanone, 25 C): 5.11 log10 K
- log K of transfer, water to solvent ([3]; Butyronitrile, 25 C): 4.93 log10 K
- log K of transfer, water to solvent ([3]; CCl4, 25 C): 5.66 log10 K
- log K of transfer, water to solvent ([3]; Chlorobenzene, 25 C): 5.64 log10 K
- log K of transfer, water to solvent ([3]; Chloroform, 25 C): 5.57 log10 K
- log K of transfer, water to solvent ([3]; Cyclohexanone, 25 C): 5.13 log10 K
- log K of transfer, water to solvent ([3]; Dichloromethane, 25 C): 5.4 log10 K
- log K of transfer, water to solvent ([3]; Ethanol, 25 C): 4.84 log10 K
- log K of transfer, water to solvent ([3]; Hexadecane, 25 C): 5.45 log10 K
- log K of transfer, water to solvent ([3]; Hexane, 25 C): 5.55 log10 K
- log K of transfer, water to solvent ([3]; Methanol, 25 C): 4.54 log10 K
- log K of transfer, water to solvent ([3]; Perfluoroalkane, 25 C): 4.14 log10 K
- log K of transfer, water to solvent ([3]; Propan-1-ol, 25 C): 4.86 log10 K
- log K of transfer, water to solvent ([3]; Propan-2-ol, 25 C): 4.85 log10 K
- log K of transfer, water to solvent ([3]; Propionitrile, 25 C): 4.75 log10 K
- log K of transfer, water to solvent ([3]; Tetrahydrofuran, 25 C): 5.5 log10 K
SMILES: CCC1CCCCC1
